Consider seven molecules from patent US20160355503A1, “NITROGEN HEXACYCLE COMPOUNDS AS INHIBITORS OF p97 COMPLEX” (Cleave Biosciences, Inc., priority 2015, published 2016).

By pIC50 is commonly meant −log10 of the IC50, conventionally taken in molar units. Read a low pIC50 as a large IC50.

Structures are written as SMILES. pIC50: −log10 of the molar value.

The target in data set [1] is p97 (Homo sapiens, UniProt P55072). The data set is described as follows: P97 ATPase biochemical assay (ADP Glo). Conditions: 20 nM p97, 20 μM ATP, 37° C. for 15 minutes. The procedure: The ATPase assay is performed according the following protocol: Purified enzyme (20 nM p97), substrate (20 μM ATP) and a dose titration of compounds are mixed in buffer (50 mM TRIS pH 7.5, 20 mM MgCl2, 0.02% TX-100, 1 mM DTT, 0.2% (v/v) glycerol) and incubated at 37° C. for 15 minutes. The reaction is terminated and the level of product generated is measured using the ADP Glo Assay Kit (Promega, Madison Wis.). Plotting product generated versus compound concentration and using a four-parameter fit model generates an IC50 value for each compounds.
Sequence of p97 (P55072 whole entry): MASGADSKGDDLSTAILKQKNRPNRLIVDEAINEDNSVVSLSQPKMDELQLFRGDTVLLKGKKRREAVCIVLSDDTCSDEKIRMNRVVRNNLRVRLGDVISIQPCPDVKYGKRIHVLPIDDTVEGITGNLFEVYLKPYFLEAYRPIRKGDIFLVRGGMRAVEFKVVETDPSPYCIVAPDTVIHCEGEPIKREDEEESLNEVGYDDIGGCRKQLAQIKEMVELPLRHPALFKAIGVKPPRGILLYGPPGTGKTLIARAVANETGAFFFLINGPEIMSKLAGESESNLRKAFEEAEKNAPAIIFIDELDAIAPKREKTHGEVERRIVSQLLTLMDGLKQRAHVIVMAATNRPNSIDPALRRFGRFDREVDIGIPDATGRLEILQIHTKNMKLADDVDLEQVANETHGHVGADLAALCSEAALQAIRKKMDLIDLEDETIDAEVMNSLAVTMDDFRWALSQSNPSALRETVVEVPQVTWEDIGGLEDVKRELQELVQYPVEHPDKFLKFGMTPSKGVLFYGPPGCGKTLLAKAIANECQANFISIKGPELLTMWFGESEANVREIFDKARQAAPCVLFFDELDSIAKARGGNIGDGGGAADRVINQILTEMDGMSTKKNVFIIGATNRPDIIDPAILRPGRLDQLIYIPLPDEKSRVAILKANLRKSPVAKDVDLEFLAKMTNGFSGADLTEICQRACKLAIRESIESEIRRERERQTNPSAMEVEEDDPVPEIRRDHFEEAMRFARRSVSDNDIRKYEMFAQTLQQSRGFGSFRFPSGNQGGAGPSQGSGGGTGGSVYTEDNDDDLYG
The p97 assay is an initial screening assay used to determine inhibitory activity of the triazine compounds of the invention against the p97 complex. As discussed above, inhibition of activity of the p97 proteosome complex can enable apoptosis and cause elimination of neoplastic cells (cancer cells). The method follows that of Christianson in Nat. Cell Biol., (2011) 14:93.
Assay Buffer is a mixture of 50 mM TRIS pH 7.5, 20 mM MgCl2, 0.02% TX-100, 1 mM DTT and 0.2% (v/v) Glycerol. The well plate is Platetype: Corning 3674, 384w plate. The identification kit is an ADP glo kit (Promega): stop buffer, detection reagent.
Serial dilute compound in DMSO in a 1:3.33-fold 10 point serial dilution.
in each well of 384w plate add the following reagents:
0.5 μL compound serial diluted in DMSO (Final Conc. 10%)
2 μL ATP (Final Conc.=20 uM, diluted in assay buffer)
2.5 μL p97 (Final Conc.=20 nM, diluted in assay buffer)
Incubate at 37 deg C. for 15 min.
Add 5 μL of stop buffer, incubate at RT for 40 min.
Add 10 μL of detection reagent, incubate at RT for 30 min.
Read luminescence on Envision plate reader.
Upon obtaining the data from the luminescence reading, the data may be analyzed as follows:
Normalize luminescence data using no enzyme (full inhibition) and no compound (no inhibition) controls. Plot normalized luminescence data against log-transformed concentration values and fit to a sigmoidal curve to determine IC50 values (done in Collaborative Drug Discovery software).
On the technique in general: In ADP-Glo the light output rises with the ADP produced.

Data set [2] concerns A549 cells. The data set is described as follows: Cultured cancer cell viability assay (cell titer glo, CTG). The format is cell-based. The conditions noted are these: Homo sapiens, 72 hr incubation. The text has this:
Anti-tumor effects are monitored in cultured cancer cells after several days of compound treatment. The cell titer glo assay (Promega) measures the amount of ATP present as a proxy for cellular viability. Cellular counting is done using high-content microscopy followed by image analysis. A hanging drop 3D-culture system (3D Biomatrix) is used followed by cell titer glo to measure growth in a tumor-like environment.
(§1) The cellular assay provides information about the anti-neoplastic activity of the compounds of the invention. The compounds are tested against cultured cancer cells to determine whether or not the compounds of the invention are capable of intersecting with cancer cells to minimize or eliminate such cells. The assay involves establishing colonies of such cells and then treating them with the test compound under specified conditions and analysis regima to determine results.
(§2) Cell Plating: • Seed cells ˜16 hrs prior to compound treatment • Plate 25 μL of A549 cells in every well of 384-well plate using multidrop. • Two (2) black plates for IF at 2500 cells/well • Let plate sit at room temp for 10-15 minutes prior to putting in incubator to allow cells to stick in middle of plate. • One (1) white plate for viability at 500 cells/well.
(§3) Treat Cells: • Serial dilute compounds with a 10 point 2-fold serial dilution in DMSO to make 250× stock compound solution • Dilute compounds 1:125 in cell culture media to make a 2× solution • Add 25 μl of dilution compounds to cell plates in well duplicates • Put cells back in incubator (6 hr incubation for black plates, 72 hr incubation for white plates).
Viability Assay: • Thaw an aliquot of frozen cell titer glo (Promega G7572) at room temperature. • Add 45 mL of NaCl/PBS solution to 5 ml of cell titer glo (10×). • Remove white plates from incubator, leave at room temp for 30 minutes. • Add 25 μl of diluted cell titer glo to each well. • Shake plate for >1 minute. • Incubate plate for >5 minutes to stabilize luminescence. • Luminescence is stable for up to 3 hours. • Read luminescence on plate reader
For orientation: In ATP-based viability assays light output follows the ATP content of the culture.

In data set [3] the test system is K48-Ub. The data set is described as follows: K48-Ub immunofluorescence assay in A549 cells. The format is cell-based. Conditions: Homo sapiens, 6 hr incubation. The procedure:
Image-analysis is used to generate quantitative data from these assays that can be fit to a four-parameter sigmoid curve to derive IC50 values. Substrates of the ubiquitin-proteasome system, such as p53, are monitored after tumor cell lines are incubated with compounds for several hours. Accumulation of these proteins indicates an inhibition of proteasome-mediated degradation. Accumulation of lysine-48 chain linkage of poly-ubiquitin is also monitored by immunofluorescence as an indicator of ubiquitin-proteasome system inhibition. Both LC3 and SQSTM1 are mediators of autophagy. The localization and amounts of these proteins are monitored by immunofluorescence and report on the activity and inhibition of autophagy in response to p97 inhibition.
as §1, §2, §3
Fix/Stain Black Plates: • Incubate cells in black plates with compound at 37 deg C. for 6 hrs. • add 15 μL of 16% Paraformaldehyde (PFA) directly into media of each well, • incubate at room temp for 5 min, flick plate and wash in 50 μL of PBS • block in 50 μL of Blocking Buffer for 30 minutes (can go up to several hours) • Blocking buffer: 1×PBS, 1% BSA, 0.3% Triton-X100, Hoechst (1:10,000) • incubate in 25 μL of primary antibody in blocking buffer at 4 deg C. over night
Secondary Antibodies: • AlexaFluor488 Goat anti-Rabbit 1:2,000 (Life Tech A11008) • AlexaFluor555 Goat anti-Mouse 1:2,000 (Life Tech A21422) […]
Data Analysis: • Nuclear counts and cellular intensities of each markers are measured using Hoechst as a nuclear marker with an automated image analysis protocol using Matlab software (Math Works)

For data set [4], the system named is Caco-2 cells.

`Cc1nnc(-n2c(CN)cc3c(C(N)=O)cccc32)nc1NCc1ccccc1` [2-(aminomethyl)-1-(5-(benzylamino)-6-methyl-1,2,4-triazin-3-yl)-1H-indole-4-carboxamide] gave a pIC50 in data set [1] of over 5.00.
With `Cc1nnc(-n2c(C)cc3c(C(N)=O)cccc32)nc1NCc1ccccc1` [1-(5-(benzylamino)-6-methyl-1,2,4-triazin-3-yl)-2-methyl-1H-indole-4-carboxamide], the pIC50 in data set [1] is over 7.52; in data set [2], over 5.52; in data set [3], over 5.52.
`Cc1nnc(-n2c(C)cc3c(C(N)=O)cccc32)nc1NCc1cccc(F)c1` [1-(5-((3-fluorobenzyl)amino)-6-methyl-1,2,4-triazin-3-yl)-2-methyl-1H-indole-4-carboxamide]: the pIC50 is over 6.00 in data set [1], over 5.00 in data set [2] and over 5.52 in data set [3].
Regarding `Cc1nc(NCc2ccccc2)nc(-n2c(C)cc3c(C(N)=O)cccc32)n1` [1-(4-(benzylamino)-6-methyl-1,3,5-triazin-2-yl)-2-methyl-1H-indole-4-carboxamide], the pIC50 was over 7.00 in data set [1], over 5.00 in data set [2] and over 5.52 in data set [3].
As for `CC(C)NCC(O)COc1cccc2ccccc12` (stereo not shown) [Propranolol], the “Peff A B, Range” value in data set [4] (pH 7.4 Caco-2, A to B) is recorded as 18.50-36.80 ×E−6 cm/sec. The “Peff B A, Range” value in data set [4] (pH 7.4 Caco-2, B to A) is 16.30-31.40 ×E−6 cm/sec.
With `CCc1nnc(-n2c(C)cc3c(C(N)=O)cccc32)nc1NCc1ccccc1` [1-(5-(benzylamino)-6-ethyl-1,2,4-triazin-3-yl)-2-methyl-1H-indole-4-carboxamide], the pIC50 is over 7.52 in data set [1], over 6.00 in data set [2] and over 6.00 in data set [3].
For the molecule `COc1nc2c(C#N)cccc2n1-c1nnc(C)c(NCc2ccccc2)n1` [1-(5-(benzylamino)-6-methyl-1,2,4-triazin-3-yl)-2-methoxy-1H-benzo[d]imidazole-4-carbonitrile], the pIC50 in data set [1] was over 5.00.
